Laboratory results reported in PubChem BioAssay (NCI).
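GI50: concentration for 50% inhibition of growth. TGI denotes the concentration required for complete inhibition of growth.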

What was measured:
Experiment in all cases: growth of human tumour cells (NCI), 384-well format
[1] = tested on: SF-295 CNS
[2] = tested on: SNB-75 CNS
[3] = tested on: OVCAR-8 ovarian
[4] = tested on: TK-10 renal
[5] = tested on: MALME-3M melanoma
[6] = tested on: SF-539 CNS
[7] = tested on: SK-MEL-28 melanoma
[8] = tested on: IGROV1 ovarian
[9] = tested on: HCC-2998 colon
[10] = tested on: SF-268 CNS
[11] = tested on: HCT-15 colon
[12] = tested on: UACC-62 melanoma
[13] = tested on: MDA-MB-468 breast
[14] = tested on: NCI-H23 lung
[15] = tested on: HCT-116 colon
[16] = tested on: MOLT-4 leukemia
[17] = tested on: NCI-H460 NSCLC
[18] = tested on: NCI-H522 lung
[19] = tested on: MDA-MB-231 breast
[20] = tested on: 786-0 renal
[21] = tested on: KM12 colon
[22] = tested on: COLO 205 colon
[23] = tested on: BT-549 breast
[24] = tested on: OVCAR-4 ovarian
[25] = tested on: ACHN renal
[26] = tested on: HOP-62 NSCLC
[27] = tested on: U251 glioblastoma
[28] = tested on: NCI/ADR-RES ovarian
[29] = tested on: RXF 393 renal
[30] = tested on: EKVX NSCLC
[31] = tested on: K-562 leukemia
[32] = tested on: OVCAR-3 ovarian
[33] = tested on: CAKI-1 renal
[34] = tested on: SK-MEL-2 melanoma
[35] = tested on: HS 578T breast
[36] = tested on: MDA-MB-435 melanoma
[37] = tested on: HT29 colon
[38] = tested on: A498 renal
[39] = tested on: MCF7 breast
[40] = tested on: RPMI-8226 leukemia
[41] = tested on: SW-620 colon
[42] = tested on: UO-31 renal
[43] = tested on: SN12C renal
[44] = tested on: M14 melanoma
[45] = tested on: A549 NSCLC
[46] = tested on: HOP-92 NSCLC
[47] = tested on: SNB-19 CNS
[48] = tested on: OVCAR-5 ovarian
[49] = tested on: NCI-H226 lung
[50] = tested on: T-47D breast
[51] = tested on: NCI-H322M lung
[52] = tested on: CCRF-CEM leukemia
[53] = tested on: UACC-257 melanoma
[54] = tested on: LOX IMVI melanoma
[55] = tested on: DU-145 prostate
[56] = tested on: HL-60(TB) leukemia
[57] = tested on: SK-OV-3 ovarian
[58] = tested on: SK-MEL-5 melanoma
[59] = tested on: PC-3 prostate

C=CC(=O)N1CCC(Oc2cc3c(Nc4ccc(Cl)c(Cl)c4F)ncnc3cc2OC)CC1
GI50 [1]: 4.15 µM | TGI [1]: 14.9 µM | GI50 [2]: 0.291 µM | TGI [2]: 2.13 µM | GI50 [3]: 1.95 µM | TGI [3]: 12.2 µM | GI50 [4]: < 0.01 µM | TGI [4]: 0.738 µM | GI50 [5]: 2.52 µM | TGI [5]: 11.2 µM | GI50 [6]: 1.36 µM | TGI [6]: 3.56 µM | GI50 [7]: 14 µM | TGI [7]: 27.1 µM | GI50 [8]: < 0.01 µM | TGI [8]: 0.817 µM | GI50 [9]: 1.62 µM | TGI [9]: 7.47 µM | GI50 [10]: 1.19 µM | TGI [10]: 5.58 µM | GI50 [11]: 2.38 µM | TGI [11]: 12.7 µM | GI50 [12]: 2.44 µM | TGI [12]: 11.6 µM | GI50 [13]: < 0.01 µM | TGI [13]: < 0.01 µM | GI50 [14]: 1.78 µM | TGI [14]: 6.13 µM | GI50 [15]: 3.73 µM | TGI [15]: 15.2 µM | GI50 [16]: 0.43 µM | TGI [16]: 1.88 µM | GI50 [17]: 2.87 µM | TGI [17]: 13.7 µM | GI50 [18]: < 0.01 µM | TGI [18]: 0.0162 µM | GI50 [19]: 2.1 µM | TGI [19]: 14 µM | GI50 [20]: 1.31 µM | TGI [20]: 4.74 µM | GI50 [21]: 3.07 µM | TGI [21]: 12.7 µM | GI50 [22]: 4.34 µM | TGI [22]: 18.4 µM | GI50 [23]: 1.11 µM | TGI [23]: 3.99 µM | GI50 [24]: 0.363 µM | TGI [24]: 5.42 µM | GI50 [25]: < 0.01 µM | TGI [25]: 11.2 µM | GI50 [26]: 2.27 µM | TGI [26]: 8.53 µM | GI50 [27]: 3.52 µM | TGI [27]: 15.7 µM | GI50 [28]: 1.1 µM | TGI [28]: 3.21 µM | GI50 [29]: 0.23 µM | TGI [29]: 1.31 µM | GI50 [30]: < 0.01 µM | TGI [30]: 2.14 µM | GI50 [31]: 1.27 µM | TGI [31]: 2.88 µM | GI50 [32]: 0.244 µM | TGI [32]: 3.21 µM | GI50 [33]: 0.198 µM | TGI [33]: 1.7 µM | GI50 [34]: 1.75 µM | TGI [34]: 4.66 µM | GI50 [35]: 1.04 µM | TGI [35]: 2.46 µM | GI50 [36]: 2.64 µM | TGI [36]: 10.9 µM | GI50 [37]: 2.42 µM | TGI [37]: 11.9 µM | GI50 [38]: 0.137 µM | TGI [38]: 1.95 µM | GI50 [39]: 0.69 µM | TGI [39]: 14.1 µM | GI50 [40]: 1.25 µM | TGI [40]: 3.26 µM | GI50 [41]: 4.42 µM | TGI [41]: 16.6 µM | GI50 [42]: 0.137 µM | TGI [42]: 2.08 µM | GI50 [43]: 0.353 µM | TGI [43]: 6.44 µM | GI50 [44]: 3.01 µM | TGI [44]: 15.4 µM | GI50 [45]: 1.24 µM | TGI [45]: 12 µM | GI50 [46]: 1.39 µM | TGI [46]: 4.02 µM | GI50 [47]: 2.92 µM | TGI [47]: 14.4 µM | GI50 [48]: 1.23 µM | TGI [48]: 11.8 µM | GI50 [49]: 0.813 µM | TGI [49]: 13.2 µM | GI50 [50]: 0.0173 µM | TGI [50]: 7.89 µM | GI50 [51]: < 0.01 µM | TGI [51]: 4.15 µM | GI50 [52]: 1.26 µM | TGI [52]: 2.74 µM | GI50 [53]: 3.33 µM | TGI [53]: 13.6 µM | GI50 [54]: 1.62 µM | TGI [54]: 3.47 µM | GI50 [55]: 0.879 µM | TGI [55]: 14.6 µM | GI50 [56]: 1.94 µM | TGI [56]: 3.49 µM | GI50 [57]: < 0.01 µM | TGI [57]: 1.52 µM | GI50 [58]: 2.98 µM | TGI [58]: 13.3 µM | GI50 [59]: 1.96 µM | TGI [59]: 10.4 µM
